According to patent US10258633B2, “Treatment of fibrosis using FXR ligands” (Intercept Pharmaceuticals, Inc., priority 2004, dated 2019):

Legend:
[1] = system: hepatic stellate cells (HSC); experiment: Quantitative RT-PCR of FXR target genes (SHP, BSEP, NTCP, CYP7A1) in HSC
[2] = system: hepatic stellate cells (HSC); experiment: HSC proliferation assay ([3H]-thymidine incorporation, cell counting); format: cell-based, rat
[3] = system: hepatic stellate cells (HSC); experiment: Type I collagen α1 mRNA expression in HSCs by RT-PCR, quantitative RT-PCR and Northern blot; format: cell-based, rat; conditions: confirmed by Northern blot
Protocol: Primers: Rat SHP: [NT] (SEQ ID NO: 1) and [NT] (SEQ ID NO: 2); Rat FXR: [NT] (SEQ ID NO: 3) and [NT] […] (SEQ ID NO: 5) and [NT] (SEQ ID NO: 6); Rat c-Jun: [NT] (SEQ ID NO: 7) and 5' [NT] 3 (SEQ ID NO: 8)'; Rat JunD: [NT] (SEQ ID NO: 9) and [NT] […] (SEQ ID NO: 12). Levels of Collagen I alpha I were determined by Northern blot analyses of total RNA samples prepared from primary hepatic stellate cells (HSC), T6 and HepG2 cell lines. For this purpose, 10 μg total RNA was resolved by gel electrophoresis (1% agarose containing 0.98 M formaldehyde). Immediately after electrophoresis the RNA was transferred to a positively charged Nylon membrane (Amersham Life Sciences crop.). The transferred RNA was cross-linked to the membrane by UV light. The membrane was prehybridized for 4 hours in 6×SSC and 2% SDS and subsequently hybridized at 65° C. for 20 h with 32^P-labeled probes for collagen I alpha I or GAPDH (as internal control). Hybridized membranes were washed at a final stringency of 1×SSC, 1.0% SDS at 65° C. and exposed to Kodak AR-2 film at -80° C. The data are expressed relative to the internal GAPDH.

BDL rats = experiment: Liver fibrosis in bile duct ligated (BDL) rats; format: in vivo, rat; conditions: 1 and 3 mg/kg/day by oral route
Protocol: BDL is a model of chronic cholestasis. In this model, however, progressive liver fibrosis leads to the development of cirrhosis 3-4 weeks after ligation and it is therefore also used as a model of liver fibrosis (Kountouras et al., Br. J. Exp. Pathol., 65: 305-311, 1984). Because this model allows us to test the effect of anti-fibrotic remedies, we administered rats […] with 6ECDCA at the dose of 1 and 3 mg/kg per os per day for 2 weeks. The protocol's study was approved by the Animal Study Committee of the University of Perugia. Hepatic fibrosis was induced in 8-9 weeks old male Wistar rats (Charles River, Monza, Italy) by BDL. BDL was performed as originally described by Kountouras et al. (Br. J. Exp. Pathol. 65: 305-311; 1984). One week after BDL, rats were randomized to receive one of the following treatments, placebo (subcutaneous injection of 100 μL PBS) or 6ECDCA at the doses 1 and 3 mg/kg/day by oral route. Animals were then followed for 3 weeks.
At the end of the study surviving rats were sacrificed under pentobarbital sodium anesthesia (50 mg/kg i.p) and terminally bled via cardiac puncture. The blood was centrifuged at 7250 g for 20 minutes at 4° C.; the resultant serum was stored at −20° C. until analysis (a maximum of 2 weeks). At the time of death, the bile duct ligature was confirmed to be intact with proximal dilatation of the common bile duct. After weight determination, specimens of livers were snap frozen in liquid nitrogen and stored at −70° C. for subsequent analysis. For histologic examination portions of the right and left liver lobes (10-15 mg/each) from each animal were fixed in 10% formalin, embedded in paraffin, sectioned, and stained with hematoxylin and eosin or Sirius red. For Sirius red staining, the sections were incubated for 30 minutes in 0.1% Sirius red F3B (Sigma Chemical Co.) containing saturated picric acid and 0.1% Fast Green. After rinsing twice with distilled water, sections were briefly dehydrated with 70% ethanol and coverslipped. Collagen surface density from liver samples was quantified using a computerized image analysis system as described previously (Image Acquisition System Ver. 005, Delta Sistemi, Rome, Italy). The surface density of collagen in blinded specimens was measured at a video screen display magnification according to the method described by Rockey and Chung (Rockey, D. C., Chung, J. J. J. Clin. Invest. 98: 1381-1388, 1996) and expressed as a percent (the ratio of collagen surface area per total analyzed field surface). The average of the score taken from 10 random fields was used to generate a single score for each animal's liver.

FXR = conditions: cell-free assay or cell-based transactivation assay using a human or rat FXR; cited from earlier work

## CC[C@H]1[C@@H](O)[C@@H]2[C@H](CC[C@]3(C)[C@@H]([C@H](C)CCC(=O)O)CC[C@@H]23)[C@@]2(C)CC[C@@H](O)C[C@@H]12 [6ECDCA]
[1]; 6ECDCA 1 μM
  increase of BSEP mRNA: […]
  increase of SHP mRNA: […]
[2]; [3H]-thymidine incorporation
  HSC proliferation induced by thrombin, PDGF and TGFβ1: […]
[2]; cell counting
  HSC proliferation induced by thrombin, PDGF and TGFβ1: […]
[3]; 1 μM
  expression of type I collagen (α1 mRNA): reduces
BDL rats
  liver collagen deposition by scoring of Sirius-red staining: significant reduction
  liver hydroxyproline content: significant reduction
  liver α1 mRNA by RT-PCR: significant reduction
  reduction in liver collagen content, quantitative analysis of Sirius Red stained collagen: 62%
FXR
  EC50: […]

## C[C@H](CCC(=O)O)[C@H]1CC[C@H]2[C@@H]3[C@H](O)C[C@@H]4C[C@H](O)CC[C@]4(C)[C@H]3CC[C@]12C [CDCA, chenodeoxycholic acid, reference compound]
[1]; CDCA 20 μM
  increase of BSEP mRNA: 2 fold
  increase of SHP mRNA: 2 fold
[3]; 20 μM
  expression of type I collagen (α1 mRNA): reduces

## CC(C)c1onc(-c2c(Cl)cccc2Cl)c1COc1ccc(/C=C/c2cccc(C(=O)O)c2)c(Cl)c1 [GW4064]
[3]; 100 μM
  expression of type I collagen (α1 mRNA): reduces
